Experiments:
db/db mutant mice = test: Oral administration in the early intervention treatment of type 2 diabetes in db/db mutant mice; type: in vivo; details: day 12
Experimental: Five week-old female db/db mutant mice (C57BL/KsJ-db +/+ m; Jackson Labs) were housed in a fixed 12-12-hr artificial light-dark cycle, and maintained on a standard high fat diet (containing at least 11% crude fat) provided ad libitum (Teklad S-2335). Animals were allowed two days to acclimate in this experimental environment prior to the initiation of the study.
Prior to initiation of treatment, the animals were bled from the tail vein (100–200 μL of whole blood) and serum levels of glucose and triglycerides were measured in duplicate (Trinder kits; Sigma, St. Louis, Mo.). Based on these initial measures, animals (not yet hyperglycemic) were sorted into groups with approximately the same average serum glucose levels. Once sorted, the animals were housed six per cage and provided high fat rodent diet ad libitum. • Experiment I: (Compound 1) • Treatment groups (n=6/group): • 1) db/db control (sesame oil) • 2) Compound 1 (0.3 mg/kg; twice daily) • 3) Compound 1 (1 mg/kg; twice daily) • Experiment II: (Compound 32) • Treatment groups (n=6/group): • 1) db/db control (sesame oil) • 2) Compound 32 (0.3 mg/kg; once daily) • 3) Compound 32 (1 mg/kg; once daily) • 4) Compound 32 (3 mg/kg; once daily) • 3) Rosiglitazone (1 mg/kg; only daily)
Drug is prepared by mixing Compound 1 or 32 in sesame oil, and administered to animals in a volume of 5 ml/kg/dose. Drug is administered by oral gavage daily at the beginning (Compound 1 and 32) and end of the artificial dark cycle (Compound 1; 12 hour interval).
(§1) To monitor the effect of Compound 1 or 32, animals were bled following a three-hour fast at the end of the dark cycle on days 12 of the treatment period. Fasting serum glucose and triglyceride levels were measured in duplicate. The blood is kept at room temperature to allow coagulation, after which the serum is separated and assayed for glucose and triglyceride levels.

ob/ob mutant mice = test: Oral administration in the late intervention treatment of type 2 diabetes in ob/ob mutant mice; type: in vivo; details: oral gavage 5 mg/kg twice daily, p<0.05 vs control; for fasting serum glucose levels: 1 and 2 weeks of treatment; for fasting serum triglyceride levels: two weeks of treatment
Experimental: Five week-old male ob/ob mutant mice (C57BL/6J-ob; Jackson Labs) were housed in a fixed 12-12-hr artificial light-dark cycle, and maintained on a standard diet provided ad libitum. Animals were allowed two days to acclimate in this experimental environment prior to the initiation of the study.
Prior to initiation of treatment, the animals were bled from the tail vein (100–200 μL of whole blood) and serum levels of glucose and triglycerides were measured in duplicate (Trinder kits; Sigma, St. Louis, Mo.). Based on these initial measures, hyperglycemic animals were sorted into groups with approximately the same average serum glucose levels. Once sorted, the animals were housed six per cage and provided standard rodent diet ad libitum. • Treatment groups (n=6/group): • 1) ob/ob control (sesame oil) • 2) Compound 1 (5mg/kg twice daily)
Drug is prepared by mixing Compound 1 in sesame oil, and administered to animals in a volume of 3 ml/kg/dose. Drug is administered by oral gavage twice daily at the beginning and end of the artificial dark cycle (12 hour interval).
as §1, with “1,” for “1 or 32,”, “7 and 14” for “12”

[1] = young db/db mice, oral gavage, 0.3 or 1 mg/kg twice daily
[2] = young db/db mice, oral gavage, 0.3 or 1 mg/kg twice daily, listed as compound 1
[3] = db/db mice, oral gavage, 0.3, 1 or 3 mg/kg once daily, rosiglitazone 1 mg/kg as comparator
[4] = db/db mice, oral gavage, 0.3, 1 or 3 mg/kg once daily, rosiglitazone 1 mg/kg as comparator, listed as compound 32

Row | SMILES | fasting serum glucose levels (db/db mutant mice; [1]) | fasting serum triglyceride levels (db/db mutant mice; [1]) | fasting serum glucose levels (db/db mutant mice; [2]) | fasting serum triglyceride levels (db/db mutant mice; [2]) | fasting serum glucose levels (ob/ob mutant mice; 5 mg/kg) | fasting serum glucose levels (ob/ob mutant mice; listed as compound 1, 5 mg/kg) | fasting serum triglyceride levels (ob/ob mutant mice; 5 mg/kg) | fasting serum triglyceride levels (ob/ob mutant mice; listed as compound 1, 5 mg/kg) | fasting serum glucose levels (db/db mutant mice; [3]) | fasting serum triglyceride levels (db/db mutant mice; [3]) | fasting serum glucose levels (db/db mutant mice; [4]) | fasting serum triglyceride levels (db/db mutant mice; [4])
1 | COc1ccc(/C=C2\SC(=O)NC2=O)cc1-c1cc2c(cc1C)C(C)(C)CCC2(C)C [Compound 1, 3-(3,5,5,8,8-Pentamethyl-5,6,7,8-tetrahydro-2-naphthyl)-4-methoxybenzylidene-2,4-thiazolidinedione] | remained well within the normal range | remained well within the normal range | prevent increases | prevent increases | significant decrease | reduce | significantly reduced | reduce |  |  |  | 
2 | Cc1cc2c(cc1-c1cc(/C=C3\SC(=O)NC3=O)ccc1OC(F)(F)F)C(C)(C)CCC2(C)C [Compound 32, 3-(3,5,5,8,8-Pentamethyl-5,6,7,8-tetrahydro-2-naphthyl)-4-trifluoromethoxybenzylidene-2,4-thiazolidinedione] |  |  |  |  |  |  |  |  | remained well within the normal range | remained well within the normal range | equally or more potent than rosiglitazone | equally or more potent than rosiglitazone

Reference: patent US7226940B2, “Substituted heterocycles for the treatment of diabetes and other diseases” (Incyte San Diego, Inc., priority 2004, dated 2007)
